Assay results published in patent US11692436B2, “Molecular tracers and modified proppants for monitoring underground fluid flows” (National Technology & Engineering Solutions of Sandia, LLC, priority 2014, dated 2023).

Assay: Elution studies: tracer release from an infused porous proppant pack under constant solvent flow
Format: physicochemical
Conditions: proppant pack infused with 4
Experimental: Elution studies: Laboratory experiments designed to mimic fluid flow through hydraulically-fractured zones in a subsurface well that contain a ceramic proppant were conducted. In general, the experimental setup uses a cartridge pump to send the desired solvent fluid (either aqueous or hydrocarbon) at a constant rate through a small “proppant pack” to a fraction collector. The proppant pack consists of porous proppants that have been infused with the metal salen compounds which are packed into a plastic syringe equipped with a fine mesh proppant retention screen at the entrance tip. The pore volume—a measure of the fluid volume within the pack of proppant pellets—is measured. The proppant pack is then sealed at the top with a rubber septum to generate pressure to force the exiting fluid into tubing for transport to the collection test tubes in the fraction collector. Samples were collected over many pore volumes and the concentrations of metal complexes in the samples were measured by either Atomic Absorption Spectrophotometry (AAS) or Raman spectroscopy after the desired number of pore volumes had passed over the proppant pack. […] This retardation of tracer release in the early stage of use is important as it will extend the useful life of the tracer in practical applications, as the total amount of tracer that can be loaded is limited by the porosity of the proppant and solubility of the M-L metal complex.
(iii) Elution data. As mentioned previously, in order for the prepared metal-salen ligand complexes to be useful in tracking fluid flows the infused complexes must elute from the underground proppants upon exposure to the produced fluid, and remain soluble until they are analyzed above-ground. […]
Second, the testing solvent can be either an aqueous salt solution that simulates a formation brine or a long-chain hydrocarbon (such as Isopar L) to mimic the organic products. […] The amount of eluted tracer could also be measured using quantitative Raman spectroscopy. […]

## [(κ^4-(O,N,N′,O′)saloPh-Bu^t)Mg(py)2].tol [Compound 4]
Aliquot taken after four pore volumes had been collected (initial phase)
  level of eluted Mg-salen complex: 176 ppb
Intermediate sampling at the 20 pore volume mark
  level of eluted Mg-salen complex: 29 ppb
Latter stages of testing at the ~40 pore volume mark
  level of eluted Mg-salen complex: 9 ppb
